pKi: −log10 of the molar value.
Each compound was assayed against BRD4 (BDI_K57-E168) (Homo sapiens, UniProt O60885) (assay: TR-FRET bromodomain binding assay, BRD4 BDI).
Protocol: A time-resolved fluorescence resonance energy transfer (TR-FRET) assay was used to determine the affinities of compounds of the Examples listed in Table 1 for each bromodomain of BRD4. […] An Alexa647-labeled BET-inhibitor was used as the fluorescent probe in the assay.
(§1) Compound dilution series were prepared in DMSO via an approximately 3-fold serial dilution. Compound dilutions were added directly into white, low-volume assay plates (Perkin Elmer Proxiplate 384 Plus #6008280) using a Labcyte Echo in conjunction with Labcyte Access and Thermo Multidrop CombinL robotics. Compounds were then suspended in eight microliters (μL) of assay buffer (20 mM Sodium Phosphate, pH 6.0, 50 mM NaCl, 1 mM Ethylenediaminetetraacetic acid disodium salt dihydrate, 0.01% Triton X-100, 1 mM DL-Dithiothreitol) containing His-tagged bromodomain, Europium-conjugated anti-His antibody (Invitrogen PV5596) and Alexa-647-conjugated probe.
After a one-hour equilibration at room temperature, TR-FRET ratios were determined using an Envision multilabel plate reader (Ex 340, Em 495/520).
TR-FRET data were normalized to the means of 24 no-compound controls (“high”) and 8 controls containing 1 μM un-labeled probe (“low”). Percent inhibition was plotted as a function of compound concentration and the data were fit with the 4 parameter logistic equation to obtain IC50s. Inhibition constants (Ki) were calculated from the IC50s, probe Kd and probe concentration.
Compound dilution series for Compounds A-E were prepared in DMSO via an approximately 3-fold serial dilution from 0.47 mM to 7.8 nM.
as §1, with “Compound” for “Compound dilution series were prepared in DMSO via an approximately 3-fold serial dilution. Compound”
TR-FRET data were normalized to the means of 24 no-compound controls (“high”) and 8 controls containing 1 μM un-labeled probe (“low”). Percent inhibition was plotted as a function of compound concentration and the data were fit with the 4 parameter logistic equation to obtain IC50s. Inhibition constants (Ki) were calculated from the IC50s, probe Kd and probe concentration. Typical Z′ values were between 0.65 and 0.75. The minimum significant ratio was determined to evaluate assay reproducibility (Eastwood et al., (2006) J Biomol Screen, 11: 253-261). The MSR was determined to be 2.03 for BDI and 1.93 for BDII, and a moving MSR (last six run MSR overtime) for both BDI and BDII was typically <3.

**Q.** How did the pKi turn out when `COC(=O)NC[C@H]1C[C@H](Oc2cc(=O)n(C)cc2-c2cc(C(C)(C)O)ccc2Oc2c(C)cc(F)cc2C)C1` [Example 7, methyl {[trans-3-({5-[2-(4-fluoro-2,6-dimethylphenoxy)-5-(2-hydroxypropan-2-yl)phenyl]-1-methyl-2-oxo-1,2-dihydropyridin-4-yl}oxy)cyclobutyl]methyl}carbamate] was run?
**A.** Its pKi is 6.04.

**Q.** With `Cc1cc(F)cc(C)c1Oc1ccc(C(C)(C)O)cc1-c1cn(C)c(=O)cc1O[C@H]1C[C@@H](CNC(=O)OC(C)(C)C)C1` [Example 8, tert-butyl {[cis-3-({5-[2-(4-fluoro-2,6-dimethylphenoxy)-5-(2-hydroxypropan-2-yl)phenyl]-1-methyl-2-oxo-1,2-dihydropyridin-4-yl}oxy)cyclobutyl]methyl}carbamate] as the compound, how does the pKi read?
**A.** Its pKi is 5.57.

**Q.** How did the pKi turn out when `Cc1cc(F)cc(C)c1Oc1ccc(C(C)(C)O)cc1-c1cn(C)c(=O)cc1NC1CCN(S(C)(=O)=O)CC1` [Example 9, 5-[2-(4-fluoro-2,6-dimethylphenoxy)-5-(2-hydroxypropan-2-yl)phenyl]-4-{[1-(methanesulfonyl)piperidin-4-yl]amino}-1-methylpyridin-2(1H)-one] was run?
**A.** Its pKi is 5.43.

**Q.** `CC(=O)NC1CC2(C1)CC(Nc1cc(=O)n(C)cc1-c1cc(C(C)(C)O)ccc1Oc1c(C)cccc1C)C2` (stereo not shown) [Example 10, N-[6-({5-[2-(2,6-dimethylphenoxy)-5-(2-hydroxypropan-2-yl)phenyl]-1-methyl-2-oxo-1,2-dihydropyridin-4-yl}amino)spiro[3.3]heptan-2-yl]acetamide] was tested. Which pKi did it give?
**A.** Its pKi is 5.63.

**Q.** How did the pKi turn out when `Cc1cccc(C)c1Oc1ccc(C(C)(C)O)cc1-c1cn(C)c(=O)cc1NC1CCN(C(=O)OC(C)(C)C)C1` (stereo not shown) [Example 11, tert-butyl 3-({5-[2-(2,6-dimethylphenoxy)-5-(2-hydroxypropan-2-yl)phenyl]-1-methyl-2-oxo-1,2-dihydropyridin-4-yl}amino)pyrrolidine-1-carboxylate] was run?
**A.** The pKi was 5.90.

**Q.** With `Cc1cccc(C)c1Oc1ccc(C(C)(C)O)cc1-c1cn(C)c(=O)cc1NC1CCN(S(C)(=O)=O)C1` (stereo not shown) [Example 12, 5-[2-(2,6-dimethylphenoxy)-5-(2-hydroxypropan-2-yl)phenyl]-4-{[1-(methanesulfonyl)pyrrolidin-3-yl]amino}-1-methylpyridin-2(1H)-one] as the compound, how does the pKi read?
**A.** Its pKi is 6.26.

**Q.** With `CC(=O)N[C@H]1CC[C@H](N(C)c2cc(=O)n(C)cc2-c2cc(C(C)(C)O)ccc2Oc2c(C)cc(F)cc2C)CC1` [Example 13, N-{trans-4-[{5-[2-(4-fluoro-2,6-dimethylphenoxy)-5-(2-hydroxypropan-2-yl)phenyl]-1-methyl-2-oxo-1,2-dihydropyridin-4-yl}(methyl)amino]cyclohexyl}acetamide] as the compound, how does the pKi read?
**A.** The pKi was < 4.89.

**Q.** With `CC(=O)N1CCC(Nc2cc(=O)n(C)cc2-c2cc(C(C)(C)O)ccc2Oc2c(C)cccc2C)C1` (stereo not shown) [Example 14, 4-[(1-acetylpyrrolidin-3-yl)amino]-5-[2-(2,6-dimethylphenoxy)-5-(2-hydroxypropan-2-yl)phenyl]-1-methylpyridin-2(1H)-one] as the compound, how does the pKi read?
**A.** The pKi was 5.81.

**Q.** With `Cc1cc(F)cc(C)c1Oc1ccc(C(C)(C)O)cc1-c1cn(C)c(=O)cc1O[C@H]1CC[C@H](CNC(=O)OC(C)(C)C)CC1` [Example 15, tert-butyl [trans-4-({5-[2-(4-fluoro-2,6-dimethylphenoxy)-5-(2-hydroxypropan-2-yl)phenyl]-1-methyl-2-oxo-1,2-dihydropyridin-4-yl}oxy)cyclohexyl]methylcarbamate] as the compound, how does the pKi read?
**A.** Its pKi is 5.22.

**Q.** `CC(=O)N(C)[C@H]1CC[C@H](Oc2cc(=O)n(C)cc2-c2cc(C(C)(C)O)ccc2Oc2c(C)cc(F)cc2C)CC1` [Example 16, N-[trans-4-({5-[2-(4-fluoro-2,6-dimethylphenoxy)-5-(2-hydroxypropan-2-yl)phenyl]-1-methyl-2-oxo-1,2-dihydropyridin-4-yl}oxy)cyclohexyl]-N-methylacetamide] was tested. Which pKi did it give?
**A.** The pKi was 5.55.

**Q.** `CC(=O)N[C@H]1CC[C@H](Oc2cc(=O)n(C)cc2-c2cc(C(C)(C)O)cnc2Oc2c(C)cc(C(C)(C)O)cc2C)CC1` [Example 17, N-[trans-4-({5′-(2-hydroxypropan-2-yl)-2′-[4-(2-hydroxypropan-2-yl)-2,6-dimethylphenoxy]-1-methyl-6-oxo[1,6-dihydro[3,3′-bipyridine]]-4-yl}oxy)cyclohexyl]acetamide] was tested. Which pKi did it give?
**A.** Its pKi is 5.93.

**Q.** `CC(=O)N[C@H]1CC[C@H](Oc2cc(=O)n(C)cc2-c2cc(C(C)(C)O)ccc2Oc2c(C)cc(C(C)(C)O)cc2C)CC1` [Example 18, N-{trans-4-[(5-{5-(2-hydroxypropan-2-yl)-2-[4-(2-hydroxypropan-2-yl)-2,6-dimethylphenoxy]phenyl}-1-methyl-2-oxo-1,2-dihydropyridin-4-yl)oxy]cyclohexyl}acetamide] was tested. Which pKi did it give?
**A.** Its pKi is 6.01.

**Q.** How did the pKi turn out when `CC(=O)N[C@H]1CC[C@H](Nc2cc(=O)n(C)cc2-c2cc(C(C)(C)O)ccc2Oc2c(C)cc(F)cc2C)CC1` [Example 19, N-[trans-4-({5-[2-(4-fluoro-2,6-dimethylphenoxy)-5-(2-hydroxypropan-2-yl)phenyl]-1-methyl-2-oxo-1,2-dihydropyridin-4-yl}amino)cyclohexyl]acetamide] was run?
**A.** The pKi was 5.54.

**Q.** With `COC(=O)N[C@H]1CC[C@H](Oc2cc(=O)n(C)cc2-c2cc(C(C)(C)O)ccc2Oc2c(C)cc(C(C)(C)O)cc2C)CC1` [Example 20, methyl {trans-4-[(5-{5-(2-hydroxypropan-2-yl)-2-[4-(2-hydroxypropan-2-yl)-2,6-dimethylphenoxy]phenyl}-1-methyl-2-oxo-1,2-dihydropyridin-4-yl)oxy]cyclohexyl}carbamate] as the compound, how does the pKi read?
**A.** The pKi was 5.96.

**Q.** How did the pKi turn out when `CC(=O)NC[C@@H]1CC[C@H](Oc2cc(=O)n(C)cc2-c2cc(C(C)(C)O)ccc2Oc2c(C)cc(F)cc2C)[C@H]1C` [Example 22, N-{[(1R,2S,3S)-3-({5-[2-(4-fluoro-2,6-dimethylphenoxy)-5-(2-hydroxypropan-2-yl)phenyl]-1-methyl-2-oxo-1,2-dihydropyridin-4-yl}oxy)-2-methylcyclopentyl]methyl}acetamide] was run?
**A.** Its pKi is 5.54.

**Q.** With `Cc1cc(F)cc(C)c1Oc1ccc(C(C)(C)O)cc1-c1cn(C)c(=O)cc1NC1CCC(C)(O)CC1` (stereo not drawn) [Example 23, 5-[2-(4-fluoro-2,6-dimethylphenoxy)-5-(2-hydroxypropan-2-yl)phenyl]-4-[(trans-4-hydroxy-4-methylcyclohexyl)amino]-1-methylpyridin-2(1H)-one] as the compound, how does the pKi read?
**A.** The pKi was 5.44.

**Q.** `Cc1cc(F)cc(C)c1Oc1ccc(C(C)(C)O)cc1-c1cn(C)c(=O)cc1O[C@H]1CC[C@H](N2CCCC2=O)CC1` [Example 24, 5-[2-(4-fluoro-2,6-dimethylphenoxy)-5-(2-hydroxypropan-2-yl)phenyl]-1-methyl-4-{[trans-4-(2-oxopyrrolidin-1-yl)cyclohexyl]oxy}pyridin-2(1H)-one] was tested. Which pKi did it give?
**A.** The pKi was 5.54.

**Q.** How did the pKi turn out when `COC(=O)N[C@H]1CC[C@H](Oc2cc(=O)n(C)cc2-c2cc(C(C)(C)O)cnc2Oc2c(C)cc(C(C)(C)O)cc2C)CC1` [Example 25, methyl [trans-4-({5′-(2-hydroxypropan-2-yl)-2′-[4-(2-hydroxypropan-2-yl)-2,6-dimethylphenoxy]-1-methyl-6-oxo[1,6-dihydro[3,3′-bipyridine]]-4-yl}oxy)cyclohexyl]carbamate] was run?
**A.** The pKi was 5.65.

**Q.** With `COCC(=O)N1CCC(Oc2cc(=O)n(C)cc2-c2cc(C(C)(C)O)cnc2Oc2c(C)cc(F)cc2C)CC1` [Example 26, 2′-(4-fluoro-2,6-dimethylphenoxy)-5′-(2-hydroxypropan-2-yl)-4-{[1-(methoxyacetyl)piperidin-4-yl]oxy}-1-methyl[3,3′-bipyridin]-6(1H)-one] as the compound, how does the pKi read?
**A.** The pKi was 5.05.

Reference: patent US20210047304A1, “Bromodomain Inhibitors” (AbbVie Inc., priority 2016, published 2021)
